# Assay results published in patent US20160184340A1, “THE USE OF SPINOSYNS AND SPINOSYN COMPOSITIONS AS LOCAL ANESTHETICS AND AS ANTIARRHYTHMIC AGENTS” (Entarco SA, priority 2010, published 2016).
# Where “and” joins values, the source holds several entries; their conditions need not be identical. Equal entries are not always repeated. Structures can show the parent of a compound that is named as a salt. Where two headings read alike, the source gives them in different places.
# Legend:
# male Sprague-Dawley rats [1] = experiment: Pain response testing, foot pinch test (Example 1, comparison with Lidocaine); assay type: in vivo; conditions: for Foot Pinch Test average per animal, round 1: group average (1 = no anesthetic effect, 0 = effect); for Foot Pinch Test average per animal, round 1 / Foot Pinch Test Results Round 1: 45 minutes post dose; for Foot Pinch Test average per animal, round 1 / Foot Pinch Test average per animal, round 2 / Foot Pinch Test average per animal, round 3 / Foot Pinch Test average per animal, round 4 / Foot Pinch Test average per animal, round 5 / Foot Pinch Test average per animal, round 6: SQ 1.33 mL/kg (spinosad 12 mg/kg; Lidocaine 26.6 mg/kg); for Foot Pinch Test average per animal, round 2 / Foot Pinch Test average per animal, round 3 / Foot Pinch Test average per animal, round 4 / Foot Pinch Test average per animal, round 5 / Foot Pinch Test average per animal, round 6: group average; for Foot Pinch Test average per animal, round 2 / Foot Pinch Test Results Round 2: 70 minutes post dose; for Foot Pinch Test average per animal, round 3 / Foot Pinch Test Results Round 3: 1.5 hour post dose; for Foot Pinch Test average per animal, round 4 / Foot Pinch Test Results Round 4: 2 hours post dose; for Foot Pinch Test average per animal, round 5 / Foot Pinch Test Results Round 5: 2.5 hours post dose; for Foot Pinch Test average per animal, round 6 / Foot Pinch Test Results Round 6: 4 hours post dose; for Foot Pinch Test Results Round 1 / Foot Pinch Test Results Round 2 / Foot Pinch Test Results Round 3 / Foot Pinch Test Results Round 4 / Foot Pinch Test Results Round 5 / Foot Pinch Test Results Round 6: individual animal; for Foot Pinch Test Results Round 1: single SQ 1.33 mL/kg into left hind foot (spinosad 12 mg/kg; Lidocaine 2% solution, 26.6 mg/kg); for Foot Pinch Test Results Round 2 / Foot Pinch Test Results Round 3 / Foot Pinch Test Results Round 4 / Foot Pinch Test Results Round 5 / Foot Pinch Test Results Round 6: single SQ 1.33 mL/kg (spinosad 12 mg/kg; Lidocaine 26.6 mg/kg)
# Method: Positive control: Lidocaine (Manufacturer: VetTek), as a Lidocaine Hydrochloride (2% solution or approx. 74 mM)
# Assay: Pain response testing-foot pinch
# Animals used: male Sprague-Dawley rats
# Experimental set-up. The test article was administered as follows:
# Approximately 1.33 mL/kg spinosad solution was administered once, subcutaneously at 12 mg/kg (9 mg/mL, 1.33 mL/kg) into the left hind foot of each rat in the treatment group (Group 3), positive control group (Group 2, Lidocaine, 1.33 mL/kg), and control vehicle group (Group 1, DMSO, 1.33 mL/kg).
# Beginning approximately 45 minutes post-dose all animals were subjected to pain response testing, foot pinch test. The test was conducted on each rat, in order, and then repeated on each, 5 more times (6 rounds of testing) through 4 hours post-dose. The foot pinch test measured the rodent's tolerance of pressure on their foot. The rat was removed from its cage and the treated foot was pinched. Whether or not the rodent's foot responded to the pinch was documented. The treatment group averages were compared to positive and negative control group averages (Table 3 and FIG. 1).
# Six total rounds of foot pinch-pain response testing were conducted at approximately 45, 70, 90, 120, 150, and 240 minutes post-dose. Time of dosing and pain testing results were recorded for each animal.
# [2] = target: cloned hERG potassium channels (Homo sapiens, UniProt Q12809)
# Method: Rational for Ion channel selection: Inhibition of hERG (IKr) channels closely predicts the cardiac action potential prolongation. […] This stable expressed hERG cell line is widely used for hERG testing. The percentage inhibition of spinosad on human-ERG currents were evaluated from the gold standard manual patch clamp studies.
# Test sample: spinosad (Supplier:Sigma-Aldrich/Fluka), in DMSO 9 mg/ml (0.8% w/w or approx. 12 mM)
# Positive control: Terfenadine (Supplier: Sigma-Aldrich), in DMSO at a concentration of 1 mM.
# All the final solutions contained no more than 0.3% DMSO.
# Assay: Electrophysiology recording: Micropipette was pulled from borosilicate glass with the pipette tip resistance between 3-5 MΩ. For each experiment, a single dish of cells is removed from the incubator, washed twice with room temperature ECS and then placed on the microscope stage. A commercial patch clamp amplifier was used for the whole cell recordings.
# Voltage protocol and current recording: The tail currents were evoked at room temperature once every 30 s by a 3 s −50 mV repolarizing pulse following a 2 s+50 mV depolarizing pulse with a hold voltage of −80 mV. A 50 ms depolarized pulse to −50 mV at the beginning of the voltage protocol served as a baseline for calculating the amplitude of the peak tail current. Only stable cells with recording parameters above threshold were allowed to enter the drug application procedure. The hERG currents were allowed to stabilize over a 3 minutes period in the presence of a vehicle alone prior to the application of spinosad. The cells were kept in the test solution until the peak tail current was stable (<5% change) for about 5 sweeps or for a maximum of 6 min, whichever came first.
# Acceptance criteria for measurements: 1. Whole-cell membrane resistance (Rm) was greater than 1000 MΩ throughout the experiment. 2. Initial current was greater than 300 pA. 3. Series resistance value following establishment of whole-cell mode was less than 12 MΩ. 4. The leak current that the cell began with or developed over time was less than 10% of the ionic current magnitude (up to a maximum of 80 pA).
# male Sprague-Dawley rats [3] = experiment: Foot pinch test, duration of action and reversible effects (Example 2); assay type: in vivo; conditions: for Foot Pinch Test average per animal, round 1 / Foot Pinch Test average per animal, round 2 / Foot Pinch Test average per animal, round 3 / Foot Pinch Test average per animal, round 4 / Foot Pinch Test average per animal, round 5: group average; for Foot Pinch Test average per animal, round 1 / Foot Pinch Test Results Round 1: 1 hour post dose; for Foot Pinch Test average per animal, round 2 / Foot Pinch Test Results Round 2: 4 hours post dose; for Foot Pinch Test average per animal, round 3 / Foot Pinch Test Results Round 3: 6 hours post dose; for Foot Pinch Test average per animal, round 4 / Foot Pinch Test Results Round 4: 8 hours post dose; for Foot Pinch Test average per animal, round 5 / Foot Pinch Test Results Round 5: 24 hours post dose; for Foot Pinch Test Results Round 2 / Foot Pinch Test Results Round 3 / Foot Pinch Test Results Round 4 / Foot Pinch Test Results Round 5 / Foot Pinch Test Results Round 1: individual animal
# Method: This test was conducted to establish spinosad's reversible local anesthetic effects and confirm the prolonged effect. The same assay as in example 1 was used.
# Test article: spinosad in DMSO 9 mg/ml, administered in two doses; high dose 9 mg/kg and low dose 4.5 mg/kg.
# The treatment group averages were compared to positive and negative control group averages (Table 6 and FIG. 2).
# [4] = no value or species printed; cited from earlier work
# Sequence of cloned hERG potassium channels (Q12809 whole entry): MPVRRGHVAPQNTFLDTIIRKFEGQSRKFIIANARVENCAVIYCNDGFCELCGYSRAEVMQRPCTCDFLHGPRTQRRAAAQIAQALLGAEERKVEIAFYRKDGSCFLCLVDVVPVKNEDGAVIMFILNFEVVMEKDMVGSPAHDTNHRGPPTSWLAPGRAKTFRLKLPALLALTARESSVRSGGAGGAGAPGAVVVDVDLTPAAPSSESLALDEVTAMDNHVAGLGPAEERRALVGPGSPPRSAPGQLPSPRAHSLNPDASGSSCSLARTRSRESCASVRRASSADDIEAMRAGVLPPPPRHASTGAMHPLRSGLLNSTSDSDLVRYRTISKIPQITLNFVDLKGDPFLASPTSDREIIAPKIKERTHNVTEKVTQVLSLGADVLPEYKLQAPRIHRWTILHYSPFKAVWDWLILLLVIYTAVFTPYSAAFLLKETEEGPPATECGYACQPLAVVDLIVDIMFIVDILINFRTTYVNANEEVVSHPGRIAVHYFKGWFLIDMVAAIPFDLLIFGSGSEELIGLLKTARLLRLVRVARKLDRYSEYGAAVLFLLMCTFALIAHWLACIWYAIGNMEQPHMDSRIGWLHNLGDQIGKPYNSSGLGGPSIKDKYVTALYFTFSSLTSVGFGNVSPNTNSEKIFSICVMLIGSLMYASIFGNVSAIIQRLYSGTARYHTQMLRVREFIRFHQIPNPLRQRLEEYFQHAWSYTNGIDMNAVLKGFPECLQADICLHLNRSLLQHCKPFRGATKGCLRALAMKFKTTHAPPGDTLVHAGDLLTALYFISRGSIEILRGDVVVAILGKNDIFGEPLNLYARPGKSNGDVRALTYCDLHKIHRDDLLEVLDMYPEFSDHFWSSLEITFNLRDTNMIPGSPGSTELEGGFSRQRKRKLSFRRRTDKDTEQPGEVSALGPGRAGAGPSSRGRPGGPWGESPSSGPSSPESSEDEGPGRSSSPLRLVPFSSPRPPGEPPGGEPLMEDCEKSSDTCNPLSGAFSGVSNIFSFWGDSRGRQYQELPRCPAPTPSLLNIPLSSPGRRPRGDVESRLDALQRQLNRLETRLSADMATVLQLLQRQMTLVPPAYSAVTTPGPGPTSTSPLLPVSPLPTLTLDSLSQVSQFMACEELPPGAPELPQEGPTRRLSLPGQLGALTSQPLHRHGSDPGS
compound,measurement,setting,value
"CCN(CC)CC(=O)Nc1c(C)cccc1C [Lidocaine, Lidocaine Hydrochloride]",Time by which localized anesthetic effect resolved,"male Sprague-Dawley rats [1]; Lidocaine group, 1.33 mL/kg SQ, post-dose",~70 min
same,"Foot Pinch Test average per animal, round 1",male Sprague-Dawley rats [1],0.00
same,"Foot Pinch Test average per animal, round 2",male Sprague-Dawley rats [1],0.67
same,"Foot Pinch Test average per animal, round 3",male Sprague-Dawley rats [1],1.00
same,"Foot Pinch Test average per animal, round 4",male Sprague-Dawley rats [1],1.00
same,"Foot Pinch Test average per animal, round 5",male Sprague-Dawley rats [1],1.00
same,"Foot Pinch Test average per animal, round 6",male Sprague-Dawley rats [1],1.00
same,Foot Pinch Test Results Round 1,male Sprague-Dawley rats [1],0.00
same,Foot Pinch Test Results Round 2,male Sprague-Dawley rats [1]; Hydrochloride,1.00 (4×) and 0.00 (2×)
same,Foot Pinch Test Results Round 3,male Sprague-Dawley rats [1],1.00
same,Foot Pinch Test Results Round 4,male Sprague-Dawley rats [1],1.00
same,Foot Pinch Test Results Round 5,male Sprague-Dawley rats [1],1.00
same,Foot Pinch Test Results Round 6,male Sprague-Dawley rats [1],1.00
spinosad,% Block Cell #2,[2]; 1.35 μM,3.5%
same,% Block Cell #3,[2]; 1.35 μM,0.6%
same,Average Inhibition (%) of hERG currents,[2]; 1.35 μM,7.2±8.9%
same,% Block Cell #1,"[2]; 1.35 μM, hERG tail current, room temperature",17.3%
same,% Block Cell #1,[2]; 4.50 μM,26.9%
same,% Block Cell #2,[2]; 4.50 μM,19.2%
same,% Block Cell #3,[2]; 4.50 μM,19.4%
same,Average Inhibition (%) of hERG currents,[2]; 4.50 μM,21.8±4.4%
same,% Block Cell #1,[2]; 13.50 μM,30.3%
same,% Block Cell #2,[2]; 13.50 μM,48.4%
same,% Block Cell #3,[2]; 13.50 μM,47.7%
same,% Block Cell #4,[2]; 13.50 μM,40.2%
same,Average Inhibition (%) of hERG currents,[2]; 13.50 μM,41.7±8.4%
same,% Block Cell #2,[2]; 36.00 μM,77.5%
same,% Block Cell #3,[2]; 36.00 μM,84.1%
same,% Block Cell #4,[2]; 36.00 μM,73.2%
same,Average Inhibition (%) of hERG currents,[2]; 36.00 μM,78.3±5.5%
same,Reversibility of blocking on hERG current,[2]; saline wash,reversible after one minute of saline wash
same,Concentration dependence of hERG current inhibition,"[2]; whole cell recordings, HEK293-hERG stable cell line",inhibited hERG currents in a concentration-dependent manner
same,"Foot Pinch Test average per animal, round 1",male Sprague-Dawley rats [3]; 4.5 mg/kg SQ,0.50
same,"Foot Pinch Test average per animal, round 2",male Sprague-Dawley rats [3]; 4.5 mg/kg SQ,0.83
same,"Foot Pinch Test average per animal, round 3",male Sprague-Dawley rats [3]; 4.5 mg/kg SQ,1.00
same,"Foot Pinch Test average per animal, round 4",male Sprague-Dawley rats [3]; 4.5 mg/kg SQ,1.00
same,"Foot Pinch Test average per animal, round 5",male Sprague-Dawley rats [3]; 4.5 mg/kg SQ,1.00
same,"Foot Pinch Test average per animal, round 1",male Sprague-Dawley rats [3]; 9.0 mg/kg SQ,0.00
same,"Foot Pinch Test average per animal, round 2",male Sprague-Dawley rats [3]; 9.0 mg/kg SQ,0.17
same,"Foot Pinch Test average per animal, round 3",male Sprague-Dawley rats [3]; 9.0 mg/kg SQ,0.50
same,"Foot Pinch Test average per animal, round 4",male Sprague-Dawley rats [3]; 9.0 mg/kg SQ,0.50
same,"Foot Pinch Test average per animal, round 5",male Sprague-Dawley rats [3]; 9.0 mg/kg SQ,1.00
same,Foot Pinch Test Results Round 2,"male Sprague-Dawley rats [3]; 4.5 mg/kg SQ, 4.5 mg/kg",1.00 (5×) and 0.00
same,Foot Pinch Test Results Round 3,male Sprague-Dawley rats [3]; 4.5 mg/kg SQ,1.00
same,Foot Pinch Test Results Round 4,male Sprague-Dawley rats [3]; 4.5 mg/kg SQ,1.00
same,Foot Pinch Test Results Round 5,male Sprague-Dawley rats [3]; 4.5 mg/kg SQ,1.00
same,Foot Pinch Test Results Round 2,"male Sprague-Dawley rats [3]; 9.0 mg/kg SQ, 9 mg/kg",0.00 (5×) and 1.00
same,Foot Pinch Test Results Round 3,"male Sprague-Dawley rats [3]; 9.0 mg/kg SQ, 9 mg/kg",0.00 (3×) and 1.00 (3×)
same,Foot Pinch Test Results Round 4,"male Sprague-Dawley rats [3]; 9.0 mg/kg SQ, 9 mg/kg",0.00 (3×) and 1.00 (3×)
same,Foot Pinch Test Results Round 5,male Sprague-Dawley rats [3]; 9.0 mg/kg SQ,1.00
same,Foot Pinch Test Results Round 1,male Sprague-Dawley rats [3]; spinosad high dose 9.0 mg/kg SQ foot pad,0.00
same,Foot Pinch Test Results Round 1,"male Sprague-Dawley rats [3]; spinosad low dose 4.5 mg/kg SQ foot pad, 4.5 mg/kg",1.00 (3×) and 0.00 (3×)
same,Duration of local anesthetic effect,male Sprague-Dawley rats [3]; single SQ dose 4.5 mg/kg,lasted during the first hour of study only
same,Duration of local anesthetic effect (remained unresolved),male Sprague-Dawley rats [3]; single SQ dose 9 mg/kg,6 to 8 h
same,Reversibility of local anesthetic effect,male Sprague-Dawley rats [3]; single SQ dose 9 mg/kg,fully reversible at 24 hours
same,Tolerability,male Sprague-Dawley rats [3]; single subcutaneous dose into the footpad at 9 mg/kg,well tolerated
same,LD50 relative to lidocaine,[4],much higher LD50 than lidocaine
same,"Foot Pinch Test average per animal, round 1",male Sprague-Dawley rats [1],0.00
same,"Foot Pinch Test average per animal, round 2",male Sprague-Dawley rats [1],0.00
same,"Foot Pinch Test average per animal, round 3",male Sprague-Dawley rats [1],0.17
same,"Foot Pinch Test average per animal, round 4",male Sprague-Dawley rats [1],0.17
same,"Foot Pinch Test average per animal, round 5",male Sprague-Dawley rats [1],0.33
same,"Foot Pinch Test average per animal, round 6",male Sprague-Dawley rats [1],0.50
same,Foot Pinch Test Results Round 1,male Sprague-Dawley rats [1],0.00
same,Foot Pinch Test Results Round 2,male Sprague-Dawley rats [1],0.00
same,Foot Pinch Test Results Round 3,male Sprague-Dawley rats [1],0.00 (5×) and 1.00
same,Foot Pinch Test Results Round 4,male Sprague-Dawley rats [1],0.00 (5×) and 1.00
same,Foot Pinch Test Results Round 5,male Sprague-Dawley rats [1],0.00 (4×) and 1.00 (2×)
same,Foot Pinch Test Results Round 6,male Sprague-Dawley rats [1],0.00 (3×) and 1.00 (3×)
same,Duration of local anesthetic effect (remained unresolved),"male Sprague-Dawley rats [1]; single SQ dose 12 mg/kg, study duration 4 hours",≥ 4 h
same,Tolerability,male Sprague-Dawley rats [1]; single subcutaneous dose into the footpad at 12 mg/kg,well tolerated
